From patent US4279822A, “N-(1-Substituted-3-pyrrolidinyl)benzamides” (A. H. Robins Company, Inc., priority 1976, dated 1981) come the findings set out here.

Each structure is given as a SMILES string.

One test has as its system apomorphine-induced emesis in dogs. Nature of the test: Reduction of apomorphine-induced emesis in dogs (anti-emetic effect). The conditions noted are these: Canis lupus familiaris, sc, 40 min, read-out: ED50, Anti-Emetic Effect of Subcutaneous Administration. Type of test: in vivo. As for the experimental part: The anti-emetic properties of the compounds of Formula I were established using a modification of the methods of Chen and Ensor, J. Pharmac. Exp. Ther. 98: 245-250 (1950) and of Leonard et al., J. Pharmac. Exp. Ther. 154: 339-345 (1966). Drug activity was assessed by its ability to reduce the frequency of apomorphine-induced emesis in dogs. The dogs were prescreened for fairly constant emetic responses to the subcutaneous administration of 0.1 mg/kg. of apomorphine hydrochloride, and those which vomited five or more times in the 40-minute period after apomorphine administration were selected for drug studies.
Groups of three dogs were used in preliminary tests and for the determinations of time of peak drug effect. Dose response curves were usually obtained using four drug-treated groups; each group contained at least three dogs. The dogs were fed approximately 17 hours prior to a test. Drugs were administered and at suitable intervals the dogs received 0.1 mg/kg of apomorphine hydrochloride subcutaneously. Frequency of emesis was determined during the next 40 minutes and emesis was counted as the actual expulsion of stomach contents.
In oral studies, drugs were administered in gelatin capsules (controls received an empty capsule). In the subcutaneous studies, drugs were administered in distilled water and/or polyethylene glycol-300.
Dogs were re-used at intervals of not less than one week. The ED50 is the dose which reduces the frequency of emesis of drug treated dogs to a value 50% below that of controls. Mean frequency of emesis for each drug treated group was compared with a mean control value derived by pooling the prior control emetic frequencies for all dogs used on that test day. The difference is expressed as a percentage decrease relative to controls. The percent decrease in mean frequency of emesis for each drug-treated group (ordinate) was plotted against log dose (abscissa) on semi-log graph sheets. The ED50 was calculated by the method of Goldstein (Biostatistics, An Introductory Test; Pages 156-161; The MacMillan Co., New York, 1964).
Take `CC(=O)Nc1ccc(C(=O)NC2CCN(C3CCCCC3)C2)cc1` (stereo not drawn) [Example 4, N-(1-Cyclohexyl-3-pyrrolidinyl)-4-acetamidobenzamide]: the ED50 is 2.4 mg/kg. `O=C(NC1CCN(C2CCCCC2)C1)c1ccc(Cl)cc1Cl` (stereo not drawn) [Example 14]: the ED50 is 2.4 mg/kg. On to `O=C(NC1CCN(C2CCCCC2)C1)c1cc([N+](=O)[O-])cc([N+](=O)[O-])c1` (stereo not drawn) [Example 6, N-(1-Cyclohexyl-3-pyrrolidinyl)-3,5-dinitrobenzamide], for which the ED50 amounted to 0.15 mg/kg.

Still in this test, the particulars now being: Canis lupus familiaris, sc, 40 min; dogs, s.c.; doses expressed as free base; apomorphine hydrochloride 0.1 mg/kg s.c.; 50% reduction of emesis frequency vs controls, 40 min; read-out: ED50, Anti-Emetic Effect of Subcutaneous Administration.
`CNc1ccc(C(=O)N(C)C2CCN(C3CCCCC3)C2)cc1.Cl.Cl` (stereo not drawn) [Example 5, 4-Methylamino-N-(1-cyclohexyl-3-pyrrolidinyl)-N-methylbenzamide Dihydrochloride]: the ED50 amounted to 0.05 mg/kg.

Still in this test, the particulars now being: dogs, 5 mg/kg s.c.; percent reduction in emesis over that of controls; apomorphine hydrochloride 0.1 mg/kg s.c.
With `CC(=O)Nc1ccccc1C(=O)NC1CCN(C2CCCCC2)C1` (stereo not drawn) [Example 35], the “% Reduction in Emesis” value was -95%. For the compound `CS(=O)(=O)Nc1ccc(C(=O)NC2CCN(C3CCCCC3)C2)cc1` (stereo not drawn) [Example 34], the “% Reduction in Emesis” value was -86%.

`CC(=O)Nc1ccc(C(=O)NC2CCN(Cc3ccccc3)C2)cc1` (stereo not drawn) [Example 36]: the “% Reduction in Emesis” value is listed as -59%. On to `CS(=O)(=O)N(c1ccc(C(=O)NC2CCN(C3CCCCC3)C2)cc1)S(C)(=O)=O` (stereo not drawn) [Example 8, N-(1-Cyclohexyl-3-pyrrolidinyl)-4-[bis(methylsulfonyl)amino]benzamide], for which the “% Reduction in Emesis” value is given as -44%.

For `CC(=O)Nc1cccc(C(=O)NC2CCN(C3CCCCC3)C2)c1` (stereo not drawn) [Example 33], the “% Reduction in Emesis” value was -87%.
